Entries after “also recorded” stand apart in the source; their conditions may differ.
Columns and labels:
Sprague-Dawley rats = assay: Operant sucrose self-administration procedure; assay type: in vivo, rat
Method: Naïve female Sprague-Dawley rats (230-270 g; Taconic, Germantown, N.Y.) were housed individually and maintained on a normal 12 hr light cycle (light on/off at 7 a.m./7 p.m.) in the colony room. For all experiments, food (normal chow) and water were provided ad libitum. The experiments were conducted in accordance with the “Guide for the Care and Use of Laboratory Animals” (National Academy of Sciences, 1996).
Rats were water deprived for 23 h so that shaping of the bar-press response could initially be accomplished by training rats to bar-press for water. Thereafter, in non-deprived rats, oral sucrose self-administration testing began with a 16-h nocturnal session followed by daily 1-h sessions, 5 days (Monday-Friday) a week. Rats were allowed access to two levers mounted 15 cm apart on the front wall of each operant test chamber (Coulbourn Instruments, Allentown, Pa.). A response on either of the two levers produced a sucrose reward (15% solution; 0.01 ml) on a FR1 TO 20 (fixed ratio 1 with a 20 sec time-out) schedule. After rates of sucrose self-administration stabilized (20% variation from one day to the next across 5 days), usually after 2 weeks of testing, 18-MC (10-40 mg/kg) or vehicle was administered i.p. 15 minutes before a test session. Each rat typically received two or three different treatments (in randomized order) spaced at least one week apart.
The operant self-administration data were analyzed by two-way ANOVA with reward (sucrose vs. water) and dose of 18-MC as the main factors. Subsequent post hoc tests (Newman-Keuls) compared the effects of 18-MC to baseline.

rats [1] = assay: Ad libitum sucrose intake over 24 hours (choice of sucrose or water); assay type: in vivo, rat
Method: FIG. 9 is a graph showing effects of 18-MC (10, 20, 40 mg/kg i.p.) on consumption of sucrose. Each bar represents mean 24 hour consumption of 5% sucrose solution expressed as percent of baseline (S.E.M.): *=p<0.05.
As described above, systemic 18-MC can decrease operant responding for sucrose and local administration of 18-MC into the dorsolateral tegmentum can also do so. These findings, which were unanticipated, led to investigation of the possibility that 18-MC might be useful in decreasing intake of sweet substances when available ad libitum along with normal rat chow. Rats offered a choice of drinking sucrose (15%) or water have strong preferences (70-80%) for sucrose. […] Whether 18-MC's effect on sucrose intake has a consequence in terms of body weight regulation was explored in a subsequent study. Rats given unlimited access to sucrose (30%) for two weeks gained excessive weight, consistent with other studies of sucrose-induced obesity. […] 18-MC had no effect on the body weight of “normal” rats having only water available.

rats [2] = assay: Local administration of 18-MC into brain sites: drug self-administration and responding for sucrose; assay type: in vivo, rat
Excerpt: FIG. 8 is a graph showing effects of local infusion of 18-MC into the basolateral amygdala on methamphetamine self-administration and responding for sucrose. Baseline methamphetamine infusions averaged (S.E.M.) 20.2±0.9 while baseline responding for sucrose averaged (S.E.M.) 27.1±2.1. Each data point represents the mean (S.E.M.) percent of baseline of 6-9 rats. (*=p<0.05-0.01).
Although the medial habenula and the interpeduncular nucleus are the brain regions having the highest concentrations of α3β4 nicotinic receptors, moderate densities of these receptors are localized in the ventral tegmental area, in the basolateral amygdala, and in the dorsolateral tegmentum (caudal pedunculopontine and laterodorsal tegmental nuclei). […] The basolateral amygdala has also been very much implicated in reward-related phenomena, and associated with both stimulants and sucrose. Accordingly, to further investigate brain sites mediating 18-MC's effects on drug self-administration, it was determined if local administration of 18-MC into the dorsolateral tegmentum or basolateral amygdala would alter drug self-administration, the other three sites having already been examined. As done previously, sucrose (15%) was used as a control, non-drug reinforcer. Previously, local administration of 18-MC had no effect on responding for sucrose regardless of whether it was infused into the medial habenula, interpeduncular nucleus, or ventral tegmental area. […] The neural substrates for 18-MC's effects on morphine and sucrose self-administration clearly appear to be different, although both may involve α3β4 nicotinic receptors.

[3] = system: morphine-experienced rats; conditions: cited from earlier work
rats [4] = conditions: cited from earlier work

Which “effect on sucrose responding” value (Sprague-Dawley rats; 18-MC 20 mg/kg i.p., 10, 15 and 20% sucrose) does the source give for `COCC[C@H]1CC2CN3CCc4c([nH]c5ccccc45)[C@](C(=O)OC)(C2)[C@H]13` [18-MC, 18-methoxycoronaridine] here?
The value was “no significant effect”.

And the “decrease of sucrose responding” value (Sprague-Dawley rats; 18-MC 20 mg/kg i.p., not significant)?
Its value is 10-20%.

And the “operant responding for sucrose” value (Sprague-Dawley rats; 18-MC 40 mg/kg i.p., 15 min before 1-h session, 15% sucrose)?
Its value is “reduced; also recorded: decreased”.

And the “operant responding for water” value (Sprague-Dawley rats; 18-MC up to 40 mg/kg i.p., water 0.01 ml/barpress)?
The value was “no effect”.

And the “water intake over the 24 hours following administration” value (rats [1]; 18-MC 10-40 mg/kg i.p.)?
Its value is “no significant effect”.

And the “intake of sucrose over the 24 hours following administration” value (rats [1]; 18-MC 10-40 mg/kg i.p., sucrose (15%) or water)?
Its value is “decreased”.

What about the “ceiling dose beyond which no further effect on ad libitum sucrose intake” value (rats [1]; dose range 10-40 mg/kg i.p.) of the same molecule?
Its value is 10 mg/kg.

What about the responding for sucrose (rats [2]; infused into the medial habenula, interpeduncular nucleus, or ventral tegmental area (previous work)) of the same molecule?
The responding for sucrose was “no effect”.

What about the methamphetamine self-administration (rats [2]; local administration into the basolateral amygdala) of the same molecule?
Its methamphetamine self-administration is “decreased”.

And the responding for sucrose (rats [2]; local administration into the basolateral amygdala, 15% sucrose)?
Its responding for sucrose is “decreased”.

What about the “morphine or methamphetamine self-administration” value (rats [2]; local administration into the dorsolateral tegmentum) of the same molecule?
The value was “no effect”.

And the responding for sucrose (rats [2]; local administration into the dorsolateral tegmentum, 15% sucrose)?
The responding for sucrose was “decreased”.

What about the “sensitized morphine-induced dopamine release in the nucleus accumbens” value [3] of the same molecule?
Its value is “attenuate”.

And the “signs of acute opioid withdrawal” value (rats [4])?
The value was “alleviate”.
